Where two headings read alike, the source gives them in different places.
How the values were obtained:
human PD-L1 protein = molecular target: T1, human PD-L1 protein (Homo sapiens, UniProt Q9NZQ7); experiment: Thermal shift: melting temperature of PD-L1 protein; format: binding; conditions: read-out: ΔTm (° C.)
T1 construct: purchased Acro Biosystems PD1-H5229
Procedure: Test Embodiment 4. Test of Combination of the Compounds of the Present Disclosure to Improve the Stability (Melting Temperature) of PD-L1 Protein Experimental purpose: To test the ability of compounds to enhance the stability of PD-L1 protein and increase the melting temperature of the protein. Experimental method: […] A solution containing […] HEPES, SYPRO Orange, and 150 mM NaCl was prepared as experimental buffer, and human PD-L1 protein was added at a final concentration of 2 μM. […] PCR tube was put into the PCR machine, and the melt curve function was selected to detect the melting temperature of PD-L1 protein in different treatment groups (heated from 25° C. to 95° C., 0.03° C./s). The experimental data file of the PCR instrument was imported into the thermal shift software to obtain the melting temperature (Tm) of each treatment group, and the Tm of the DMSO vehicle control group was subtracted to obtain the change value (ΔTm) of the melting temperature, as shown in the following table: […]

human PD-1/PD-L1 binding = molecular target: T2, human PD-1/PD-L1 binding (Homo sapiens, UniProt Q9NZQ7); experiment: Inhibition of human PD-1/PD-L1 binding (TR-FRET/HTRF); conditions: TR-FRET, PD-L1-His and PD-1-Fc; read-out: PD-1/PD-L1 binding IC50
T2 construct: PD-L1-His protein (19 to 238 amino acids) (Abcam #ab167713); purchased Abcam (PD-L1-His); R&D (PD-1-Fc) ab167713; 1086-PD
Procedure, shortened: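 PD-L1-His (aa 19–238, diluted to 10 nM) and PD-1-Fc (aa 25–167, diluted to 20 nM) incubated with compounds (10 μM or 1 μM top, 3-fold, 11 doses) 60 min at room temperature, then anti-6HIS Eu cryptate/anti-human IgG-XL665 added for 3 h RT or overnight 4 °C. HTRF 665/620 nm ratio gave inhibition and IC50.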

[1] = molecular target: T3, PD-L1 protein on the surface of MC38-hPDL1 tumor cells (Homo sapiens, UniProt Q9NZQ7); experiment: Induction of endocytosis of PD-L1 on the surface of tumor cells (flow cytometry); format: cell-based; conditions: 16 hours incubation; for Emax: MC38-hPDL1 cells, read-out: MC38 maximum endocytosis rate; for IC50: inducing endocytosis of PD-L1, MC38-hPDL1 cells, read-out: MC38 IC50
T3 construct: expressed in transfected cells; host or cells: MC38-hPDL1 (mouse colon cancer cells)
Procedure, shortened: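 IC50 comes from nonlinear fits of endocytosis rate, calculated from the loss of surface PE-anti-CD274 flow signal relative to vehicle. Cells were MC38 mouse colon cancer cells engineered to express high human PD-L1. Compound exposure lasted 16 h at 37 °C, 5% CO2.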

[2] = compound 10 μM, PD-L1 protein 2 μM, Tm minus DMSO vehicle control

T3 sequence (Q9NZQ7 19-290): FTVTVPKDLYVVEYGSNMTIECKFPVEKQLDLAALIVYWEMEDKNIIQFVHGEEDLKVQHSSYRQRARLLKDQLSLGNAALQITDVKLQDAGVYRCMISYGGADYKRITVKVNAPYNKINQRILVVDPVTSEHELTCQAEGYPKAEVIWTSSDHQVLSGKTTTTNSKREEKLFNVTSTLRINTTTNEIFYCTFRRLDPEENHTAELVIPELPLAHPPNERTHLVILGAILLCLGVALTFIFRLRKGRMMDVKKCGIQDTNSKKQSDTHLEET
T2 sequence (Q9NZQ7 19-238): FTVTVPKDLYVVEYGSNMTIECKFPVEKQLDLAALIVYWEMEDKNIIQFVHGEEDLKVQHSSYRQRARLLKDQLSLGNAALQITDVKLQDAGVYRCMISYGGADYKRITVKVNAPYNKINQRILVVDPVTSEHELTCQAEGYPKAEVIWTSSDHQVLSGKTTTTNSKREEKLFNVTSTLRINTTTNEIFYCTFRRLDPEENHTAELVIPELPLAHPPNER
T1 sequence (Q9NZQ7 19-238 limits assumed): as the sequence (Q9NZQ7 19-238) above

Compound: CCn1c(C(=O)Nc2cccc(-c3cccc(-c4ccc(CN5CC(C(=O)O)C5)c(OC)n4)c3Cl)c2Cl)nc2c1CCN(C)C2 [Embodiment 240, 1-((6-(2,2′-Dichloro-3′-(1-ethyl-5-methyl-4,5,6,7-tetrahydro-1H-imidazo[4,5-c]pyridine-2-carboxamido)-[1,1′-biphenyl]-3-yl)-2-methoxypyridin-3-yl)methyl)azetidine-3-carboxylic Acid]
- ΔTm at 10 µM (human PD-L1 protein; [2]): 13 °C
- IC50 (human PD-1/PD-L1 binding): 2.8 nM
- Emax [1]: 97%

Compound: COc1nc(-c2cccc(-c3cccc(NC(=O)c4nc5c(n4C)CCN(C)C5)c3Cl)c2Cl)ccc1CNC[C@@H](C)O [Embodiment 128, (R)—N-(2,2′-Dichloro-3′-(5-(((2-hydroxypropyl)amino)methyl)-6-methoxypyridin-2-yl)-[1,1′-biphenyl]-3-yl)-1,5-dimethyl-4,5,6,7-tetrahydro-1H-imidazo[4,5-c]pyridine-2-carboxamide]
- ΔTm at 10 µM (human PD-L1 protein; [2]): 16.8 °C
- IC50 (human PD-1/PD-L1 binding): 6.5 nM
- Emax [1]: 98%
- IC50 [1]: 0.6 nM

Compound: COc1nc(-c2cccc(-c3cccc(NC(=O)c4nc5c(n4C)CCN(C)C5)c3Cl)c2Cl)ccc1CNC1CCOCC1C(=O)O (stereo not drawn) [Embodiment 214, 4-(((6-(2,2′-Dichloro-3′-(1,5-dimethyl-4,5,6,7-tetrahydro-1H-imidazo[4,5-c]pyridin-2-carboxamido)-[1,1′-biphenyl]-3-yl)-2-methoxypyridin-3-yl)methyl)amino)tetrahydro-2H-pyran-3-carboxylic Acid]
- ΔTm at 10 µM (human PD-L1 protein; [2]): 10.2 °C
- IC50 (human PD-1/PD-L1 binding): 5.3 nM
- Emax [1]: 93%

Compound: COc1nc(-c2cccc(-c3cccc(NC(=O)c4nc5c(n4C)CCN(C)C5)c3Cl)c2Cl)ccc1CN1CC2(CCN(C(C)=O)CC2)C1 [Embodiment 194, N-(3′-(5-((7-Acetyl-2,7-diazaspiro[3.5]nonan-2-yl)methyl)-6-methoxypyridin-2-yl)-2,2′-dichloro-[1,1′-biphenyl]-3-yl)-1,5-dimethyl-4,5,6,7-tetrahydro-1H-imidazo[4,5-c]pyridine-2-carboxamide]
- ΔTm at 10 µM (human PD-L1 protein; [2]): 13.2 °C
- IC50 (human PD-1/PD-L1 binding): 7.9 nM
- Emax [1]: 96%

Compound: COc1nc(-c2cccc(-c3cccc(NC(=O)c4nc5c(n4C)CCN(C)C5)c3Cl)c2Cl)ccc1CN1CCN(C(=O)CC#N)CC1 [Embodiment 198, N-(2,2′-Dichloro-3′-(5-((4-(2-cyanoacetyl)piperazin-1-yl)methyl)-6-methoxypyridin-2-yl)-[1,1′-biphenyl]-3-yl)-1,5-dimethyl-4,5,6,7-tetrahydro-1H-imidazo[4,5-c]pyridine-2-carboxamide]
- ΔTm at 10 µM (human PD-L1 protein; [2]): 12 °C
- IC50 (human PD-1/PD-L1 binding): 9.6 nM
- Emax [1]: 94%

Compound: COc1nc(-c2cccc(-c3cccc(NC(=O)c4nc5c(n4C)CCN(C)C5)c3Cl)c2Cl)ncc1CNCCO [Embodiment 229, N-(2,2′-Dichloro-3′-(5-(((2-hydroxyethyl)amino)methyl)-4-methoxypyrimidin-2-yl)-[1,1′-biphenyl]-3-yl)-1,5-dimethyl-4,5,6,7-tetrahydro-1H-imidazo[4,5-c]pyridine-2-carboxamide]
- ΔTm at 10 µM (human PD-L1 protein; [2]): 12 °C
- IC50 (human PD-1/PD-L1 binding): 3.2 nM
- Emax [1]: 95%

Compound: COc1nc(-c2cccc(-c3cccc(NC(=O)c4nc5c(n4C)CCN(C)C5)c3Cl)c2Cl)ccc1CNC1CN(C(C)=O)C1 [Embodiment 179, N-(3′-(5-(((1-Acetylazetidin-3-yl)amino)methyl)-6-methoxypyridin-2-yl)-2,2′-dichloro-[1,1′-biphenyl]-3-yl)-1,5-dimethyl-4,5,6,7-tetrahydro-1H-imidazo[4,5-c]pyridine-2-carboxamide]
- ΔTm at 10 µM (human PD-L1 protein; [2]): 12.3 °C
- IC50 (human PD-1/PD-L1 binding): 7.9 nM
- Emax [1]: 96%

Compound: COc1nc(-c2cccc(-c3cccc(NC(=O)c4nc5c(n4C4CC4)CCN(C)C5)c3Cl)c2Cl)ccc1CN1CC2(CC(NC(C)=O)C2)C1 [Embodiment 246, N-(3′-(5-((6-Acetylamino-2-azaspiro[3.3]heptan-2-yl)methyl)-6-methoxypyridin-2-yl)-2,2′-dichloro-[1,1′-biphenyl]-3-yl)-1-cyclopropyl-5-methyl-4,5,6,7-tetrahydro-1H-imidazo[4,5-c]pyridine-2-carboxamide]
- ΔTm at 10 µM (human PD-L1 protein; [2]): 11 °C
- IC50 (human PD-1/PD-L1 binding): 5.4 nM
- Emax [1]: 94%

Compound: COc1nc(-c2cccc(-c3cccc(NC(=O)c4nc5c(n4C)CCN(C)C5)c3Cl)c2Cl)ccc1CN1CC2(CCCO2)C1 [Embodiment 125, N-(3′-(5-((5-Oxa-2-azaspiro[3.4]octan-2-yl)methyl)-6-methoxypyridin-2-yl)-2,2′-dichloro-[1,1′-biphenyl]-3-yl)-1,5-dimethyl-4,5,6,7-tetrahydro-1H-imidazo[4,5-c]pyridine-2-carboxamide]
- ΔTm at 10 µM (human PD-L1 protein): 15.6 °C
- IC50 (human PD-1/PD-L1 binding): 8.4 nM
- Emax [1]: 96%
- IC50 [1]: 0.7 nM

Compound: COc1nc(-c2cccc(-c3cccc(NC(=O)c4nc5c(n4C)CCN(C)C5)c3Cl)c2Cl)ccc1CN[C@@H](CO)C(=O)O [Embodiment 232, ((6-(2,2′-Dichloro-3′-(1,5-dimethyl-4,5,6,7-tetrahydro-1H-imidazo[4,5-c]pyridine-2-carboxamido)-[1,1′-biphenyl]-3-yl)-2-methoxypyridin-3-yl)methyl)-L-serine]
- ΔTm at 10 µM (human PD-L1 protein; [2]): 11.1 °C
- IC50 (human PD-1/PD-L1 binding): 1.7 nM
- Emax [1]: 94%

Compound: COc1nc(-c2cccc(-c3cccc(NC(=O)c4nc5c(n4C)CCN(C)C5)c3Cl)c2Cl)ccc1CN1CC[C@H]1C(=O)O [Embodiment 171, (S)-1-((6-(2,2′-Dichloro-3′-(1,5-dimethyl-4,5,6,7-tetrahydro-1H-imidazo[4,5-c]pyridine-2-carboxamido)-[1,1′-biphenyl]-3-yl)-2-methoxypyridin-3-yl)methyl)azetidine-2-carboxylic acid]
- ΔTm at 10 µM (human PD-L1 protein): 10.3 °C
- IC50 (human PD-1/PD-L1 binding): 0.9 nM
- Emax [1]: 93%

Compound: COc1nc(-c2cccc(-c3cccc(NC(=O)c4nc5c(n4C)CCN(C)C5)c3Cl)c2Cl)ccc1CNCC(=O)O [Embodiment 138, ((6-(2,2′-Dichloro-3′-(1,5-dimethyl-4,5,6,7-tetrahydro-1H-imidazo[4,5-c]pyridine-2-carboxamido)-[1,1′-biphenyl]-3-yl)-2-methoxypyridin-3-yl)methyl)glycine]
- ΔTm at 10 µM (human PD-L1 protein; [2]): 14 °C
- IC50 (human PD-1/PD-L1 binding): 0.8 nM
- Emax [1]: 97%
- IC50 [1]: 4.5 nM

Compound: CCn1c(C(=O)Nc2cccc(-c3cccc(-c4ccc(CN[C@H]5CCOC[C@@H]5O)c(OC)n4)c3Cl)c2Cl)nc2c1CCN(C)C2 (relative stereo) [Embodiment 235, N-(2,2′-Dichloro-3′-(5-(((trans-3-hydroxytetrahydro-2H-pyran-4-yl)amino)methyl)-6-methoxypyridin-2-yl)-[1,1′-biphenyl]-3-yl)-1-ethyl-5-methyl-4,5,6,7-tetrahydro-1H-imidazo[4,5-c]pyridine-2-carboxamide]
- ΔTm at 10 µM (human PD-L1 protein; [2]): 11.3 °C
- IC50 (human PD-1/PD-L1 binding): 6.4 nM
- Emax [1]: 93%

Compound: CCn1c(C(=O)Nc2cccc(-c3cccc(-c4ccc(CN5CC(CO)C5)c(OC)n4)c3Cl)c2Cl)nc2c1CCN(C)C2 [Embodiment 239, N-(2,2′-Dichloro-3′-(5-((3-(hydroxymethyl)azetidin-1-yl)methyl)-6-methoxypyridin-2-yl)-[1,1′-biphenyl]-3-yl)-1-ethyl-5-methyl-4,5,6,7-tetrahydro-1H-imidazo[4,5-c]pyridine-2-carboxamide]
- ΔTm at 10 µM (human PD-L1 protein; [2]): 11.9 °C
- IC50 (human PD-1/PD-L1 binding): 4.9 nM
- Emax [1]: 95%

From US20230105212A1, “BIPHENYL DERIVATIVE INHIBITOR, PREPARATION METHOD THEREFOR AND USE THEREOF” (SHANGHAI HANSOH BIOMEDICAL CO., LTD., priority 2020, published 2023)
